In publication PMC11822212, “High-throughput screening identifies Aurora kinase B as a critical therapeutic target for Merkel cell carcinoma” (Nature Communications, 2025):
Where two headings read alike, the source gives them in different places.

How the values were obtained:
Assay in all cases: qHTS cell viability (CellTiter-Glo, 72 h; primary and follow-up small molecule screen)
Type in all cases: cell-based, human
[1] = system: MCC13 cells (VN-MCC)
[2] = system: MCC26 cells (VN-MCC)
[3] = system: UISO cells (VN-MCC)
[4] = system: WAGA cells (VP-MCC)
[5] = system: MKL-1 cells (VP-MCC)
[6] = system: MKL-2 cells (VP-MCC)
[7] = follow-up screen, MCC13, replicate 1
[8] = follow-up screen, MCC13, replicate 2
[9] = follow-up screen, MCC13, replicate 3
[10] = follow-up screen, MCC26, replicate 1
[11] = follow-up screen, MCC26, replicate 2
[12] = follow-up screen, MCC26, replicate 3
[13] = follow-up screen, UISO, replicate 1
[14] = follow-up screen, UISO, replicate 2
[15] = follow-up screen, UISO, replicate 3
[16] = follow-up screen, WAGA, replicate 1
[17] = follow-up screen, WAGA, replicate 2
[18] = follow-up screen, WAGA, replicate 3
[19] = follow-up screen, MKL-1, replicate 1
[20] = follow-up screen, MKL-1, replicate 2
[21] = follow-up screen, MKL-1, replicate 3
[22] = follow-up screen, MKL-2, replicate 1
[23] = follow-up screen, MKL-2, replicate 2
[24] = follow-up screen, MKL-2, replicate 3

Row | SMILES | Area under the dose-response curve (AUC) MCC13 Replicate 1 [1, 7] | Area under the dose-response curve (AUC) MCC13 Replicate 2 [1, 8] | Area under the dose-response curve (AUC) MCC13 Replicate 3 [1, 9] | Area under the dose-response curve (AUC) MCC26 Replicate 1 [2, 10] | Area under the dose-response curve (AUC) MCC26 Replicate 2 [2, 11] | Area under the dose-response curve (AUC) MCC26 Replicate 3 [2, 12] | Area under the dose-response curve (AUC) UISO Replicate 1 [3, 13] | Area under the dose-response curve (AUC) UISO Replicate 2 [3, 14] | Area under the dose-response curve (AUC) UISO Replicate 3 [3, 15] | Area under the dose-response curve (AUC) WAGA Replicate 1 [4, 16] | Area under the dose-response curve (AUC) WAGA Replicate 2 [4, 17] | Area under the dose-response curve (AUC) WAGA Replicate 3 [4, 18] | Area under the dose-response curve (AUC) MKL-1 Replicate 1 [5, 19] | Area under the dose-response curve (AUC) MKL-1 Replicate 2 [5, 20] | Area under the dose-response curve (AUC) MKL-1 Replicate 3 [5, 21] | Area under the dose-response curve (AUC) MKL-2 Replicate 1 [6, 22] | Area under the dose-response curve (AUC) MKL-2 Replicate 2 [6, 23] | Area under the dose-response curve (AUC) MKL-2 Replicate 3 [6, 24] | other results
1 | COc1ccc2c(c[n+](C)c3c4cc5c(cc4ccc23)OCO5)c1OC [Chelerythrine chloride] | 404.1 | 410.9 | 433.8 | 384.2 | 379.8 | 390.1 | 417.2 | 419.6 | 390.8 | 387.5 | 415.9 | 372.6 | 325.9 | 295.9 | 331.6 | 317.6 | 350.5 | 338.8 | –
2 | COc1ccc([C@]2(C#N)CC[C@@H](C(=O)O)CC2)cc1OC1CCCC1 [Cilomilast] | 465.9 | 445.9 | 491.5 | 421.1 | 410.0 | 436.1 | 447.9 | 471.9 | 485.5 | 477.6 | 504.5 | 496.1 | 459.2 | 478.6 | 483.6 | 473.7 | 471.8 | 486.7 | –
3 | Nc1nc(Cl)nc2c1ncn2[C@@H]1O[C@H](CO)[C@@H](O)[C@@H]1F [Clofarabine] | 326.5 | 337.3 | 347.1 | 347.1 | 310.6 | 353.8 | 305.8 | 296.3 | 317.2 | 261.2 | 248.1 | 263.5 | 270.1 | 265.5 | 283.6 | 314.2 | 343.5 | 397.2 | –
4 | C[C@H]1CCC/C=C/[C@@H]2C[C@H](O)C[C@H]2[C@H](O)/C=C/C(=O)O1 [Cyanein] | 216.1 | 230.2 | 238.1 | 231.7 | 265.8 | 194.4 | 206.3 | 227.9 | 213.5 | 224.1 | 259.2 | 236.6 | 208.9 | 220.0 | 232.6 | 238.6 | 217.1 | 214.7 | –
5 | CC(=O)C1=C(O)[C@@H]2[C@H]3c4c[nH]c5cccc(c45)C[C@H]3C(C)(C)N2C1=O [Cyclopiazonic acid] | – | – | – | – | – | – | – | – | – | – | – | – | – | – | – | – | – | – | Area under the dose-response curve (AUC) MCC13 Replicate 1 [1]: 495.4; Area under the dose-response curve (AUC) MCC13 Replicate 2 [1]: 488.6; Area under the dose-response curve (AUC) MCC13 Replicate 3 [1]: 449.6; Area under the dose-response curve (AUC) MCC26 Replicate 1 [2]: 467.3; Area under the dose-response curve (AUC) MCC26 Replicate 2 [2]: 434.2; Area under the dose-response curve (AUC) MCC26 Replicate 3 [2]: 474.3; Area under the dose-response curve (AUC) UISO Replicate 1 [3]: 472.8; Area under the dose-response curve (AUC) UISO Replicate 2 [3]: 458.0; Area under the dose-response curve (AUC) UISO Replicate 3 [3]: 445.8; Area under the dose-response curve (AUC) WAGA Replicate 1 [4]: 561.2; Area under the dose-response curve (AUC) WAGA Replicate 2 [4]: 524.5; Area under the dose-response curve (AUC) WAGA Replicate 3 [4]: 501.8; Area under the dose-response curve (AUC) MKL-1 Replicate 1 [5]: 549.5; Area under the dose-response curve (AUC) MKL-1 Replicate 2 [5]: 470.8; Area under the dose-response curve (AUC) MKL-1 Replicate 3 [5]: 482.5; Area under the dose-response curve (AUC) MKL-2 Replicate 1 [6]: 490.7; Area under the dose-response curve (AUC) MKL-2 Replicate 2 [6]: 497.0; Area under the dose-response curve (AUC) MKL-2 Replicate 3 [6]: 473.0
6 | COc1cccc2c1C(=O)c1c(O)c3c(c(O)c1C2=O)C[C@@](O)(C(C)=O)C[C@@H]3O[C@H]1C[C@H](N)[C@H](O)[C@H](C)O1 [Daunorubicin] | – | – | – | – | – | – | – | – | – | – | – | – | – | – | – | – | – | – | Area under the dose-response curve (AUC) MCC13 Replicate 1 [1]: 326.2; Area under the dose-response curve (AUC) MCC13 Replicate 2 [1]: 316.0; Area under the dose-response curve (AUC) MCC13 Replicate 3 [1]: 313.0; Area under the dose-response curve (AUC) MCC26 Replicate 1 [2]: 309.1; Area under the dose-response curve (AUC) MCC26 Replicate 2 [2]: 298.6; Area under the dose-response curve (AUC) MCC26 Replicate 3 [2]: 273.9; Area under the dose-response curve (AUC) UISO Replicate 1 [3]: 226.5; Area under the dose-response curve (AUC) UISO Replicate 2 [3]: 238.3; Area under the dose-response curve (AUC) UISO Replicate 3 [3]: 225.1; Area under the dose-response curve (AUC) WAGA Replicate 1 [4]: 254.8; Area under the dose-response curve (AUC) WAGA Replicate 2 [4]: 263.7; Area under the dose-response curve (AUC) WAGA Replicate 3 [4]: 266.2; Area under the dose-response curve (AUC) MKL-1 Replicate 1 [5]: 228.6; Area under the dose-response curve (AUC) MKL-1 Replicate 2 [5]: 217.7; Area under the dose-response curve (AUC) MKL-1 Replicate 3 [5]: 240.0; Area under the dose-response curve (AUC) MKL-2 Replicate 1 [6]: 202.9; Area under the dose-response curve (AUC) MKL-2 Replicate 2 [6]: 215.3; Area under the dose-response curve (AUC) MKL-2 Replicate 3 [6]: 253.2
7 | Nc1ccc(C(=O)Nc2ccccc2N)cc1 [Dianiline] | 470.9 | 476.2 | 459.3 | 384.0 | 438.4 | 461.6 | 377.0 | 432.3 | 415.8 | 404.2 | 318.5 | 364.2 | 338.4 | 393.7 | 398.6 | 329.9 | 373.4 | 408.4 | –
